Tested on: human embryonic stem cells
Assay: Metabolite profiling (LC/ESI-TOF mass spectrometry) of extracellular media of hESCs treated with alcohol
Assay type: cell-based
Details: ETOH 0.3, 24 H
From the text: Binned masses were annotated in silico by querying the neutral masses in several different databases. These databases included Metlin, Biological Magnetic Resonance Data Bank (BMRB), NIST Chemistry WebBook, and the Human Metabolome Database. A mass was considered identified when its neutral mass was within 10 ppm of a known compound annotated in one of the databases listed above.

CCO [ETOH]
Fold: 5-Methoxytryptophan, mass 234.125, RT 47.0879: −1.632 fold
Fold: GABA analogue, mass 171.1244, RT 26.70635: 3.755 fold
Fold: Hexylamine, mass 101.1201, RT 10.21225: 2.192 fold
Fold: N-Methyl-2-pyrrolidinone, mass 99.0689, RT 15.48433: 1.468 fold
Fold: Unknown, mass 83.0372, RT 85.57399: 2.472 fold
Fold: Unknown, mass 99.1043, RT 52.01225: 3.331 fold
Fold: Unknown, mass 130.9541, RT 88.64043: 2.025 fold
Fold: Unknown, mass 148.0052, RT 3.958833: −1.73 fold
Fold: Unknown, mass 153.0811, RT 27.80141: −1.6976 fold
Fold: Unknown, mass 161.0805, RT 14.22357: −6.435 fold
Fold: Unknown, mass 178.5546, RT 28.52393: −2.764 fold
Fold: Unknown, mass 194.0836, RT 22.61355: −1.703 fold
Fold: Unknown, mass 222.0401, RT 27.57188: −2.112 fold
Fold: Unknown, mass 223.119, RT 13.6845: −2.74 fold
Fold: Unknown, mass 229.2025, RT 32.9941: −1.377 fold
Fold: Unknown, mass 237.0041, RT 3.673694: 2.989 fold
Fold: Unknown, mass 239.9592, RT 5.176232: 1.64 fold
Fold: Unknown, mass 267.2543, RT 40.75868: −1.496 fold
Fold: Unknown, mass 271.9364, RT 4.86619: 4.07 fold
Fold: Unknown, mass 275.1193, RT 22.86183: −2.237 fold
Fold: Unknown, mass 288.2632, RT 75.76147: 1.969 fold
Fold: Unknown, mass 294.1531, RT 24.21651: −1.892 fold
Fold: Unknown, mass 298.1537, RT 66.35884: 3.758 fold
Fold: Unknown, mass 299.1929, RT 19.66398: −1.571 fold
Fold: Unknown, mass 303.8875, RT 4.954547: 2.07 fold
Fold: Unknown, mass 313.199, RT 44.09424: 2.292 fold
Fold: Unknown, mass 324.1666, RT 30.19245: −1.593 fold
Fold: Unknown, mass 337.2012, RT 8.542672: 1.287 fold
Fold: Unknown, mass 340.9252, RT 5.033976: −1.836 fold
Fold: Unknown, mass 342.1482, RT 68.02448: −1.853 fold
Fold: Unknown, mass 360.1321, RT 18.50245: −2.289 fold
Fold: Unknown, mass 362.2787, RT 83.72506: −2.542 fold
Fold: Unknown, mass 378.2956, RT 41.28494: 1.636 fold
Fold: Unknown, mass 393.1889, RT 15.90129: −1.511 fold
Fold: Unknown, mass 440.0284, RT 54.46495: 2.51 fold
Fold: Unknown, mass 444.2237, RT 51.58546: 2.242 fold
Fold, Unknown metabolite, Mass 820.8181 (retention time 4.613879): −1.851
Fold, Unknown metabolite, Mass 711.8344 (retention time 4.826824): −2.256
Fold, Unknown metabolite, Mass 913.8074 (retention time 5.217833): −1.885
Fold, Unknown metabolite, Mass 888.8041 (retention time 5.259716): 1.222
Fold, Unknown metabolite, Mass 922.0048 (retention time 5.387775): −2.755
Fold, Unknown metabolite, Mass 555.8505 (retention time 5.742094): −1.518
Fold, metabolite Ethanesulfonic acid, Mass 579.2519 (retention time 5.903169): −1.48
Fold, metabolite Oxidized glutathione, Mass 612.1509 (retention time 8.056862): −1.595
Fold, Unknown metabolite, Mass 485.204 (retention time 10.8217): 2.038
Fold, Unknown metabolite, Mass 482.1942 (retention time 10.82859): −1.528
Fold, Unknown metabolite, Mass 666.3836 (retention time 16.3338): −1.371
Fold, metabolite L-Urobilinogen, Mass 596.3543 (retention time 25.14927): 1.835
Fold, Unknown metabolite, Mass 464.225 (retention time 25.3287): −1.717
Fold, Unknown metabolite, Mass 455.2052 (retention time 28.27806): −2.509
Fold, Unknown metabolite, Mass 447.2509 (retention time 29.86415): 2.103
Fold, Unknown metabolite, Mass 444.2789 (retention time 30.05687): −1.835
Fold, Unknown metabolite, Mass 707.3933 (retention time 30.43889): −1.792
Fold, Unknown metabolite, Mass 466.2921 (retention time 30.46172): −1.959
Fold, Unknown metabolite, Mass 488.305 (retention time 30.83472): −2.185
Fold, Unknown metabolite, Mass 488.8071 (retention time 30.88032): −1.92
Fold, Unknown metabolite, Mass 510.3182 (retention time 31.20706): −2.264
Fold, Unknown metabolite, Mass 510.8202 (retention time 31.22083): −2.045
Fold, Unknown metabolite, Mass 523.8187 (retention time 31.53434): −2.173
Fold, Unknown metabolite, Mass 591.3789 (retention time 31.54325): −1.982
Fold, Unknown metabolite, Mass 532.8335 (retention time 31.58889): −2.169
Fold, Unknown metabolite, Mass 554.3444 (retention time 31.8519): −2.37
Fold, Unknown metabolite, Mass 554.8471 (retention time 31.891): −2.297
Fold, Unknown metabolite, Mass 576.3582 (retention time 32.15777): −2.209
Fold, Unknown metabolite, Mass 541.3274 (retention time 32.24719): −2.123
Fold, Unknown metabolite, Mass 611.871 (retention time 32.70236): −2.192
Fold, Unknown metabolite, Mass 620.8861 (retention time 32.73907): −2.321
Fold, Unknown metabolite, Mass 642.397 (retention time 32.95522): −2.211
Fold, Unknown metabolite, Mass 677.9101 (retention time 33.48766): −2.647
Fold, Unknown metabolite, Mass 463.2914 (retention time 33.5733): −1.665
Fold, Unknown metabolite, Mass 466.615 (retention time 33.68894): −3.279
Fold, Unknown metabolite, Mass 774.4767 (retention time 34.33545): −2.342
Fold, Unknown metabolite, Mass 521.9924 (retention time 34.35986): −1.584
Fold, Unknown metabolite, Mass 751.4193 (retention time 35.028): −1.703
Fold, metabolite Neu5Acalpha2-3Galbeta1-4Glcbeta-Sp, Mass 702.2497 (retention time 40.84822): 1.283
Fold, Unknown metabolite, Mass 449.2611 (retention time 44.98056): −3.471
Fold, Unknown metabolite, Mass 467.3804 (retention time 46.51446): −2.135
Fold, Unknown metabolite, Mass 518.3914 (retention time 46.57666): −2.707
Fold, Unknown metabolite, Mass 539.4374 (retention time 51.52268): −1.93
Fold, Unknown metabolite, Mass 446.0431 (retention time 54.8719): −2.221
Fold, Unknown metabolite, Mass 707.4296 (retention time 56.18269): −2.434
Fold, Unknown metabolite, Mass 611.4952 (retention time 56.3513): −1.9811
Fold, Unknown metabolite, Mass 765.5211 (retention time 69.32865): 1.884
Fold, Unknown metabolite, Mass 482.3062 (retention time 72.7735): −2.618
